# Values joined by “and” are separate entries in the source; they are usually repeats but may differ in a detail not shown here. Equal entries are not always repeated. Where two headings read alike, the source gives them in different places.
# Experiment: Dasatinib single oral gavage plasma pharmacokinetics (NLME modeling)
# Assay type: in vivo, mouse
# Parameters: DV (dasatinib plasma concentration): unit: ng/mL
# Conditions: for CL/F: both sexes, po, read-out: Cl_pop (apparent oral clearance) (converted); for CL/F / concentration at 0.5 h / concentration at 1 h / concentration at 2 h / concentration at 8 h / concentration at 16 h / concentration at […] / concentration at 4 h / concentration at 24 h: C57BL/6, mouse, plasma, 10 mg/kg; for concentration at 0.5 h / concentration at 1 h / concentration at 2 h / concentration at 8 h / concentration at 16 h / concentration at […] / concentration at 4 h / concentration at 24 h: oral, read-out: DV (dasatinib plasma concentration)
# Method: Dasatinib was dissolved in 80 mMol/L sodium citrate buffer pH 3.1 for a total dasatinib concentration of 1 mg/mL and a 10 mL/kg gavage volume. Mice were grouped by VD3 status and sex and studied at 8 and 10 weeks of age. […] Saphenous and submandibular bleeds of mice using a single-use Sarstedt Minivette POCT 50 μL K3 EDTA capillary device are humane methods for obtaining small volumes of blood over multiple time points, preferrable to retroorbital bleeds, and were approved for this study that required blood sampling at multiple time points (three) after dasatinib administration. Each mouse was sampled three times on two separate dasatinib dosing occasions. Blood was collected into the Minivette capillary device, dispensed into a microtube and vortexed to mix the anticoagulant. The tubes were then immediately centrifuged to plasma and stored on dry ice for the remainder of the study. At the end of the in vivo procedures, plasma samples were transferred from dry ice and placed at -80°C until analysis.
# Total plasma dasatinib concentrations were assessed using a sensitive and specific liquid chromatography, tandem mass spectrometry (LC-MS/MS) assay. Dasatinib stock solutions were prepared in acetonitrile and used to spike matrix calibrators and quality controls. Protein precipitation was performed using a 1:4 ratio of plasma to 15 ng/mL erlotinib HCl (St. Jude Compound Management, S00004053, Inventory ID: SJCH0042996, Purity > 95%) in methanol as an internal standard. A 3μL aliquot of the extracted supernatant was injected onto a Shimadzu LC-20ADXR high performance liquid chromatography system via a LEAP CTC PAL autosampler. The LC separation was performed using a Phenomenex Kinetex 2.6 um EVO C18 (100A, 50 x 2.1 mm) maintained at 50°C with gradient elution at a flow rate of 0.5 mL/min. The binary mobile phase gradient began with a linear increase to 100% B in 4.0 minutes. The column was then rinsed for 2.0 minutes at 100% B and then equilibrated at the initial conditions for two minutes for a total run time of eight minutes.
# Analyte and IS were detected with tandem mass spectrometry using a SCIEX API 5500 Q-TRAP in the positive ESI mode with monitoring of the following mass transitions: Dasatinib 488.20 -> 401.00, erlotinib HCl 394.20 -> 250.10.
# The experimental bioanalytical runs were all found to be acceptable for the purpose of a singlicate non-GLP, preclinical PK assessment. A linear model (1/X^2 weighting) fit the calibrators across the 1.00 to 500 ng/mL range, with a correlation coefficient (R) of […]. The lower limit of quantification (LLOQ), defined as a peak area signal-to-noise ratio of 5 or greater verses a matric blank with IS, was 1.00 ng/mL.
# § To evaluate the plasma pharmacokinetics (PK) of dasatinib af t er two separate single oral gavage doses of solution, separated by a washout period, in normal C57BL/6 mice […]
# vs 10wk) on the plasma PK of oral dasatinib us ing a nonlinear mixed effects (NLME) PK modeling […]
# 2. 1 In Vivo Pharmacokinetic (PK) Study
# The total plasma PK of dasatinib in C57BL/6 mice (The Jackson Laboratory) was assessed after single oral gavages of 10 mg/kg of dasatinib free base equivalents. Dasatinib (St. Jude Compound […]
# sodium citrate buffer pH 3.1 for a final dasatinib concentration of 1 mg/mL for a 10 mL/kg gavage volume.
# Mice were grouped by Vitamin D dietary sufficiency status and sex, and studied at 8 and 10 weeks of age. Survival saphenous and facial vein bleeding of mice was conducted using IACUC-approved […]
# was sampled 3 times on the 2 separate occasions of dasatinib dosing. […] The tubes were then immediately centrifuged to plasma, and stored on dry ice for […]
compound,measurement,setting,value
Cc1nc(Nc2ncc(C(=O)Nc3c(C)cccc3Cl)s2)cc(N2CCN(CCO)CC2)n1 [dasatinib],DV (dasatinib plasma concentration),"GROUP:VD3 Suf, SEX:M, OCC 2, time 0.25",101.99 and 116.5
same,DV (dasatinib plasma concentration),"GROUP:VD3 Suf, SEX:M, OCC 2, time 0.5",207.19 and 212.25
same,DV (dasatinib plasma concentration),"GROUP:VD3 Suf, SEX:M, OCC 2, time 2",297.27 and 320.75
same,DV (dasatinib plasma concentration),"GROUP:VD3 Suf, SEX:M, OCC 2, time 8",10.361 and 16.431
same,DV (dasatinib plasma concentration),"GROUP:VD3 Suf, SEX:M, OCC 2, time 24",3.3895 and 3.3706
same,CL/F,"Base Model, 10 mg/kg oral gavage",112 mL/min/kg
same,CL/F,Final Model,119 mL/min/kg
same,concentration at 0.5 h,"female, GROUP:VD3 Def, SEX:F, OCC 1, time 0.5",149 ng/mL
same,concentration at 1 h,"female, GROUP:VD3 Def, SEX:F, OCC 1, time 1",278 ng/mL
same,concentration at 2 h,"female, GROUP:VD3 Def, SEX:F, OCC 1, time 2",435 ng/mL
same,concentration at 8 h,"female, GROUP:VD3 Def, SEX:F, OCC 1, time 8",25.2 ng/mL
same,concentration at 16 h,"female, GROUP:VD3 Def, SEX:F, OCC 1, time 16",4.02 ng/mL
same,concentration at […],"female, GROUP:VD3 Def, SEX:F, OCC 2, time 0.125",49 ng/mL
same,concentration at […],"female, GROUP:VD3 Def, SEX:F, OCC 2, time 0.25",146 ng/mL
same,concentration at 0.5 h,"female, GROUP:VD3 Def, SEX:F, OCC 2, time 0.5",188 ng/mL
same,concentration at 16 h,"female, GROUP:VD3 Def, SEX:F, OCC 2, time 16",4.35 ng/mL
same,concentration at […],"female, GROUP:VD3 Suf, SEX:F, OCC 1, time 0.25",167 ng/mL
same,concentration at 0.5 h,"female, GROUP:VD3 Suf, SEX:F, OCC 1, time 0.5",231 ng/mL
same,concentration at 2 h,"female, GROUP:VD3 Suf, SEX:F, OCC 1, time 2",405 ng/mL
same,concentration at 4 h,"female, GROUP:VD3 Suf, SEX:F, OCC 1, time 4",54.1 ng/mL
same,concentration at 8 h,"female, GROUP:VD3 Suf, SEX:F, OCC 1, time 8",22 ng/mL
same,concentration at 16 h,"female, GROUP:VD3 Suf, SEX:F, OCC 1, time 16",2.06 ng/mL
same,concentration at 0.5 h,"female, GROUP:VD3 Suf, SEX:F, OCC 2, time 0.5",137 ng/mL
same,concentration at 1 h,"female, GROUP:VD3 Suf, SEX:F, OCC 2, time 1",> 500 ng/mL
same,concentration at 2 h,"female, GROUP:VD3 Suf, SEX:F, OCC 2, time 2",441 ng/mL
same,concentration at 4 h,"female, GROUP:VD3 Suf, SEX:F, OCC 2, time 4",64 ng/mL
same,concentration at 16 h,"female, GROUP:VD3 Suf, SEX:F, OCC 2, time 16",8.15 ng/mL
same,concentration at […],"male, GROUP:VD3 Def, SEX:M, OCC 1, time 0.25",145 ng/mL
same,concentration at 0.5 h,"male, GROUP:VD3 Def, SEX:M, OCC 1, time 0.5",194 ng/mL
same,concentration at 2 h,"male, GROUP:VD3 Def, SEX:M, OCC 1, time 2",> 500 ng/mL
same,concentration at 4 h,"male, GROUP:VD3 Def, SEX:M, OCC 1, time 4",87.8 ng/mL
same,concentration at 8 h,"male, GROUP:VD3 Def, SEX:M, OCC 1, time 8",16.2 ng/mL
same,concentration at 24 h,"male, GROUP:VD3 Def, SEX:M, OCC 1, time 24",6.39 ng/mL
same,concentration at 0.5 h,"male, GROUP:VD3 Def, SEX:M, OCC 2, time 0.5",178 ng/mL
same,concentration at 1 h,"male, GROUP:VD3 Def, SEX:M, OCC 2, time 1",> 500 ng/mL
same,concentration at 2 h,"male, GROUP:VD3 Def, SEX:M, OCC 2, time 2",287 ng/mL
same,concentration at 4 h,"male, GROUP:VD3 Def, SEX:M, OCC 2, time 4",83.2 ng/mL
same,concentration at 8 h,"male, GROUP:VD3 Def, SEX:M, OCC 2, time 8",15.5 ng/mL
same,concentration at 16 h,"male, GROUP:VD3 Def, SEX:M, OCC 2, time 16",11.1 ng/mL
same,concentration at […],"male, GROUP:VD3 Suf, SEX:M, OCC 1, time 0.125",49.4 ng/mL
same,concentration at […],"male, GROUP:VD3 Suf, SEX:M, OCC 1, time 0.25",110 ng/mL
same,concentration at 2 h,"male, GROUP:VD3 Suf, SEX:M, OCC 1, time 2",350 ng/mL
same,concentration at 4 h,"male, GROUP:VD3 Suf, SEX:M, OCC 1, time 4",147 ng/mL
same,concentration at […],"male, GROUP:VD3 Suf, SEX:M, OCC 2, time 0.25",107 ng/mL
same,concentration at 0.5 h,"male, GROUP:VD3 Suf, SEX:M, OCC 2, time 0.5",316 ng/mL
same,concentration at 1 h,"male, GROUP:VD3 Suf, SEX:M, OCC 2, time 1",> 500 ng/mL
same,concentration at 2 h,"male, GROUP:VD3 Suf, SEX:M, OCC 2, time 2",366 ng/mL
same,concentration at 8 h,"male, GROUP:VD3 Suf, SEX:M, OCC 2, time 8",20.4 ng/mL
same,concentration at 24 h,"male, GROUP:VD3 Suf, SEX:M, OCC 2, time 24",1.88 ng/mL

# Reference: publication PMC8528301 (PLoS ONE, 2021)
